Key:
[1] = molecular target: Mitogen-activated protein kinase kinase kinase 20 (Homo sapiens) (UniProt Q9NYL2); experiment: Selectivity interaction (KinomeScan (DiscoverX)) EUB0000092b MAP3K20; conditions: at 10 µM
[2] = molecular target: Cyclin-dependent kinase 7/ cyclin H (Homo sapiens) (UniProt P51946+P50613); experiment: Selectivity interaction (Upstate Kinase Profiler service (Millipore)) EUB0000056c CDK7; type: protein-complex assay; conditions: at 1 µM
[3] = molecular target: T1, Serine/threonine-protein kinase 36 (Homo sapiens) (UniProt Q9NRP7); experiment: Selectivity interaction (KinomeScan (DiscoverX)) EUB0001079a STK36; conditions: at 1 µM
T1 sequence (whole entry): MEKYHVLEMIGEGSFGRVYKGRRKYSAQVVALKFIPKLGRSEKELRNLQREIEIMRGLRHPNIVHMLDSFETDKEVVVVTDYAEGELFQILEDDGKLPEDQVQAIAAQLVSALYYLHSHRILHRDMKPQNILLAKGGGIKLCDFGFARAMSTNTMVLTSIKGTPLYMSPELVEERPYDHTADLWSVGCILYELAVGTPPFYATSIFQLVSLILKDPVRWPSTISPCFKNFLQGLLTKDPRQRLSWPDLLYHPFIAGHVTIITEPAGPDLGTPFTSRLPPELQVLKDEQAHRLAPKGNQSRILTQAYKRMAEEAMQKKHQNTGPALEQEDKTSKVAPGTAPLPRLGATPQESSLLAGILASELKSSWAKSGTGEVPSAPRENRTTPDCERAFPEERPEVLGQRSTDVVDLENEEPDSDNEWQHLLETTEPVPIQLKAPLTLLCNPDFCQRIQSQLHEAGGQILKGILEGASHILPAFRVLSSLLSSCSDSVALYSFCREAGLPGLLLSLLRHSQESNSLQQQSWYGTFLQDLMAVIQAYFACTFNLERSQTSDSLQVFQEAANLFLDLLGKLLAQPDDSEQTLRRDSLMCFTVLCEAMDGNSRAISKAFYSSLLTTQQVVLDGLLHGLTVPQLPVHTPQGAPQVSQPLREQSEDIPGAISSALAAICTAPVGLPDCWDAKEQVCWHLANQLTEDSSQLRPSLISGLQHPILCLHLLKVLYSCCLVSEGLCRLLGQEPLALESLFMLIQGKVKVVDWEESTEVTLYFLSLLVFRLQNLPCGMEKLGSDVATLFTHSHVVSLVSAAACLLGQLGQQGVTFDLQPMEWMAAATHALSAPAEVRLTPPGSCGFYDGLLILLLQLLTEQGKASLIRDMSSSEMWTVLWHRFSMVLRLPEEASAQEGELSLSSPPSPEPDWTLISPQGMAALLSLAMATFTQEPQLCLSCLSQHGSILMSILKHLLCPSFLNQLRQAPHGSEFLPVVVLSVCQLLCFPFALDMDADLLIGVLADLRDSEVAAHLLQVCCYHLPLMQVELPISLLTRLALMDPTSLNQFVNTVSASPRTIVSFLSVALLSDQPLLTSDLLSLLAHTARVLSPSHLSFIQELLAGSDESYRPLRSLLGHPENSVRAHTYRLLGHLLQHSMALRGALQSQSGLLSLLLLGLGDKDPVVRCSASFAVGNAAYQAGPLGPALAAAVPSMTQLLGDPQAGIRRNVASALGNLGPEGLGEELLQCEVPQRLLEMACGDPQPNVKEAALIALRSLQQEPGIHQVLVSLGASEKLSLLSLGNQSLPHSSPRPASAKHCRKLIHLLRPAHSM

[4] = molecular target: Dual specificity mitogen-activated protein kinase kinase 1 (Homo sapiens, UniProt Q02750); conditions: at 10 µM
Dual specificity mitogen-activated protein kinase kinase 1, sequence (Q02750 whole entry): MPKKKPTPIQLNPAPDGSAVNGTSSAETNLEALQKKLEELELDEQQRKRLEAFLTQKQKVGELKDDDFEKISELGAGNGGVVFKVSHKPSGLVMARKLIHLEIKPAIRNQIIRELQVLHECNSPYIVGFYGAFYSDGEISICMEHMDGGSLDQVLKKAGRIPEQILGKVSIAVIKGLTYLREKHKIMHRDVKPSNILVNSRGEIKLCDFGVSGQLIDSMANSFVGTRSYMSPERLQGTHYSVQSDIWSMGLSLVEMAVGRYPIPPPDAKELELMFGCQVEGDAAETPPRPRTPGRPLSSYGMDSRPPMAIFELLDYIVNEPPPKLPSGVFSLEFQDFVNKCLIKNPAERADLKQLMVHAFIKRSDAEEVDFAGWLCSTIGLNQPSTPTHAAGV

[5] = molecular target: Serine/threonine-protein kinase MARK2 (Homo sapiens) (UniProt Q7KZI7); experiment: Selectivity interaction (ActivX KiNativ screen (kinase selectivity in THP-1 cell lysates)) EUB0000639a MARK2; type: subcellular; conditions: lysate, at 1 µM
Serine/threonine-protein kinase MARK2 (Homo sapiens), sequence (Q7KZI7 whole entry): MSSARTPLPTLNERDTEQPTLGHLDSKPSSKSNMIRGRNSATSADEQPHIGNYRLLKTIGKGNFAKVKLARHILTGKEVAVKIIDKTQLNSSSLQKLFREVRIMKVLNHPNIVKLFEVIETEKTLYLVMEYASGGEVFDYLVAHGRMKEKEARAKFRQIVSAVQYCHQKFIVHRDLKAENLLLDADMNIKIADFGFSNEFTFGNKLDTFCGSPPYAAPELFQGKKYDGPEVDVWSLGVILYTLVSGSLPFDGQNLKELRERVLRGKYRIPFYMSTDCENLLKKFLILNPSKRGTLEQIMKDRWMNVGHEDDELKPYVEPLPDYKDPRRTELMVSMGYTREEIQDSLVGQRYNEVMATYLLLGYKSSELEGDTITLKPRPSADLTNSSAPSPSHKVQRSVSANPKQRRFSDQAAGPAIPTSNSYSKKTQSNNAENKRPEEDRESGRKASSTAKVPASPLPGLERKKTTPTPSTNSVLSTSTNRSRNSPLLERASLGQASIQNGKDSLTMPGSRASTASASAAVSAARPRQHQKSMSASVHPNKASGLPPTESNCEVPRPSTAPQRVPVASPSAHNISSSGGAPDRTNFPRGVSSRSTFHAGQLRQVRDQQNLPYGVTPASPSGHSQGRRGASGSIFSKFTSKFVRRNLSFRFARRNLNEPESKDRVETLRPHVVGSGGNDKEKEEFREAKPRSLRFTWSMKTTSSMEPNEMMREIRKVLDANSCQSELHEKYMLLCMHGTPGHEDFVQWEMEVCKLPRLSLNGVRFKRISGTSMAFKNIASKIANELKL

[6] = molecular target: Serine/threonine-protein kinase WNK2 (Homo sapiens) (UniProt Q9Y3S1); experiment: Selectivity interaction (Kinase panel (Invitrogen)) EUB0000639a WNK2; conditions: at 200 nM
Serine/threonine-protein kinase WNK2 (Homo sapiens), sequence (Q9Y3S1 whole entry): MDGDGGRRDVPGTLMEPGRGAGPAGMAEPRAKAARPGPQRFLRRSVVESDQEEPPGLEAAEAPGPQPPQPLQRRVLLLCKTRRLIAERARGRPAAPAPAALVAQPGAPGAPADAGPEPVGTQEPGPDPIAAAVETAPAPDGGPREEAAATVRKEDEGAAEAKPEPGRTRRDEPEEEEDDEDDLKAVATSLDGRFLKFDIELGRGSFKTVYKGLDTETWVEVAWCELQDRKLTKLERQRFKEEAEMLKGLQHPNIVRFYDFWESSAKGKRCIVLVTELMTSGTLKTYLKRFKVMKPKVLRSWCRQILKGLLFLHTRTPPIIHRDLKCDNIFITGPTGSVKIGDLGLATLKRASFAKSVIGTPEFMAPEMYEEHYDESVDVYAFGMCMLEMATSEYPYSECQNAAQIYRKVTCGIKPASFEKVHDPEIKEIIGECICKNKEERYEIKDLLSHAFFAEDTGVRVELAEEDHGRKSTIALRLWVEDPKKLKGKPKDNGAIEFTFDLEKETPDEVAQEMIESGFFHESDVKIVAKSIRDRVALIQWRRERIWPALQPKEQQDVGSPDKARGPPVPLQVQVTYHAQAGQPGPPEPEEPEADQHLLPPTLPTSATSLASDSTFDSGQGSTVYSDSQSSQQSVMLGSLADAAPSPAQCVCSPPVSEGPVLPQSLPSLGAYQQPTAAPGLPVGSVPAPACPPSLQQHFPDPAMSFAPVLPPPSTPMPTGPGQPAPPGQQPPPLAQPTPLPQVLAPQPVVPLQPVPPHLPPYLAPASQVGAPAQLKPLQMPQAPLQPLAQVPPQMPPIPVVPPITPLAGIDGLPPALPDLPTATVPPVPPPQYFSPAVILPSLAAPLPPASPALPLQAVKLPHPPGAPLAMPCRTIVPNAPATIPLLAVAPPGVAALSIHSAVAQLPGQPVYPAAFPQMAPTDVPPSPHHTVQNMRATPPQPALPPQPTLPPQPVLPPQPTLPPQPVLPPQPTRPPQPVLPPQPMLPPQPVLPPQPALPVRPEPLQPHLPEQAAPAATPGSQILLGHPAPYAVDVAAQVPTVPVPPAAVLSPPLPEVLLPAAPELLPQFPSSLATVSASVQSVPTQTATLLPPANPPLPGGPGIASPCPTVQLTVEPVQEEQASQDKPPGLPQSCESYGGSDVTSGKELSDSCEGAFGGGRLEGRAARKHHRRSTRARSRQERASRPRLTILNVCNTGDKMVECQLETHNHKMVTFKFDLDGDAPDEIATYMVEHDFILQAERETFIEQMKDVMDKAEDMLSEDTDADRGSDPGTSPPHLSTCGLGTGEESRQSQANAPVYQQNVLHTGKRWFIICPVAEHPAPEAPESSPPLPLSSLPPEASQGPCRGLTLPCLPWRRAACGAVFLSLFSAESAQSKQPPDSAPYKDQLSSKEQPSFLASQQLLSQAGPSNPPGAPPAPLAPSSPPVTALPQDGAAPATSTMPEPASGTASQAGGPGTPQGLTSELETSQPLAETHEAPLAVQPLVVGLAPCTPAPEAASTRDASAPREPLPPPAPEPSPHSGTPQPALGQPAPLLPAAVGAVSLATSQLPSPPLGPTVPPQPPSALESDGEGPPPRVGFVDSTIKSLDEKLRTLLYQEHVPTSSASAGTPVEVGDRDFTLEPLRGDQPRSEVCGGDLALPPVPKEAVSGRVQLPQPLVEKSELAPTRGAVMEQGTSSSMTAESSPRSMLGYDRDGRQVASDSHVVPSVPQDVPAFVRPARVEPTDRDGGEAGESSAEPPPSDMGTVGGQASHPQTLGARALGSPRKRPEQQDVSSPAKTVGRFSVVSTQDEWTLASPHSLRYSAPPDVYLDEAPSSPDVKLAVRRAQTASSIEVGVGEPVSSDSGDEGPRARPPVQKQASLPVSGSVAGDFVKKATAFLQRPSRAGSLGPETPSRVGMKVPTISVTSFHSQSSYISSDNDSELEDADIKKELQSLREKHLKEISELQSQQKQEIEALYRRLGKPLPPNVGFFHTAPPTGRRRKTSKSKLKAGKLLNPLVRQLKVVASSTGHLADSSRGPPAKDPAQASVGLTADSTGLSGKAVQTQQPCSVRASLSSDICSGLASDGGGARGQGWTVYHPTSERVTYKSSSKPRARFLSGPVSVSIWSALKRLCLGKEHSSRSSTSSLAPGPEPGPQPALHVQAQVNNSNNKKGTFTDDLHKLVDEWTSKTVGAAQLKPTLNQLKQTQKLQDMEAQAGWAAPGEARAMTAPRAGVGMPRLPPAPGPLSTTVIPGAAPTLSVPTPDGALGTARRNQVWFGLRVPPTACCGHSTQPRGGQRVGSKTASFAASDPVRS

[7] = molecular target: Protein kinase C delta type (Homo sapiens) (UniProt Q05655); experiment: Selectivity interaction (KinomeScan (DiscoverX)) EUB0000607a PRKCD; conditions: at 10 µM
Protein kinase C delta type (Homo sapiens), sequence (Q05655 whole entry, looked up): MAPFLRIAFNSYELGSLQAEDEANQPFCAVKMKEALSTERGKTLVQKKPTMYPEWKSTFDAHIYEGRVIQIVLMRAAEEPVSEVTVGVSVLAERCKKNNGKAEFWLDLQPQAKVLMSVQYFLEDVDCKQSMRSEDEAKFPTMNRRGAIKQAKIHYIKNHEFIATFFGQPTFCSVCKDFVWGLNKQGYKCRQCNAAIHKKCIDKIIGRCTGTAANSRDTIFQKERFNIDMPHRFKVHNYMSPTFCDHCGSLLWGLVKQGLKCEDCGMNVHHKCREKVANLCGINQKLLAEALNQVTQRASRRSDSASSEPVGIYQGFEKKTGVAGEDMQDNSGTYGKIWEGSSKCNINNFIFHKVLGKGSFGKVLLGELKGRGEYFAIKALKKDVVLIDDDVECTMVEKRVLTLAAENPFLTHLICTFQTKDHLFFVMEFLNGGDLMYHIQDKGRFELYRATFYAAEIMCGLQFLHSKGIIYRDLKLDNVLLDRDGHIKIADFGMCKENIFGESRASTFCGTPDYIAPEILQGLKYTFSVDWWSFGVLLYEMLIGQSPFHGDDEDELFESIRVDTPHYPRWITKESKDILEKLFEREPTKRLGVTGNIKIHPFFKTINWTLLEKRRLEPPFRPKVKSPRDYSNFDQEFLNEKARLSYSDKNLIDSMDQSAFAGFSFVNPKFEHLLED

[8] = molecular target: T2, 5-hydroxytryptamine receptor 3A (Homo sapiens) (UniProt P46098); experiment: Selectivity interaction (Panel of non-epigenetic targets (kinases, GPCRs, ion channels, and transporters, Eurofins) ) EUB0000271b HTR3A; conditions: at 1 µM
T2 sequence (whole entry): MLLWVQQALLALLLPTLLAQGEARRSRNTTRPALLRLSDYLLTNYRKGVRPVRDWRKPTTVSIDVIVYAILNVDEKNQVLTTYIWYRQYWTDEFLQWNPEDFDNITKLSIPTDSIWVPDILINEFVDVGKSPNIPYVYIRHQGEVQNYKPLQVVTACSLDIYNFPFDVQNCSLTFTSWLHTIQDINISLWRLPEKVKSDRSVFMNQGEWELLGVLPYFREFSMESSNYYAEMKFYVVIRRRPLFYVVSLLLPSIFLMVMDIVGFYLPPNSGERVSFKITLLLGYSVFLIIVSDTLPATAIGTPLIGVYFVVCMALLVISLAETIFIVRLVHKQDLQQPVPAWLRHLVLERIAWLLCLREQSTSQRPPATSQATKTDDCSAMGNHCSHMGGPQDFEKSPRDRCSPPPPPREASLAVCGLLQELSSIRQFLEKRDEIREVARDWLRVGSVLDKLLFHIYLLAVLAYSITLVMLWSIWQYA

[9] = molecular target: Protein kinase C eta type (Homo sapiens) (UniProt P24723); experiment: Selectivity interaction (KinomeScan (DiscoverX)) EUB0001619a PRKCH; conditions: at 1 µM
Protein kinase C eta type (Homo sapiens), sequence (P24723 whole entry): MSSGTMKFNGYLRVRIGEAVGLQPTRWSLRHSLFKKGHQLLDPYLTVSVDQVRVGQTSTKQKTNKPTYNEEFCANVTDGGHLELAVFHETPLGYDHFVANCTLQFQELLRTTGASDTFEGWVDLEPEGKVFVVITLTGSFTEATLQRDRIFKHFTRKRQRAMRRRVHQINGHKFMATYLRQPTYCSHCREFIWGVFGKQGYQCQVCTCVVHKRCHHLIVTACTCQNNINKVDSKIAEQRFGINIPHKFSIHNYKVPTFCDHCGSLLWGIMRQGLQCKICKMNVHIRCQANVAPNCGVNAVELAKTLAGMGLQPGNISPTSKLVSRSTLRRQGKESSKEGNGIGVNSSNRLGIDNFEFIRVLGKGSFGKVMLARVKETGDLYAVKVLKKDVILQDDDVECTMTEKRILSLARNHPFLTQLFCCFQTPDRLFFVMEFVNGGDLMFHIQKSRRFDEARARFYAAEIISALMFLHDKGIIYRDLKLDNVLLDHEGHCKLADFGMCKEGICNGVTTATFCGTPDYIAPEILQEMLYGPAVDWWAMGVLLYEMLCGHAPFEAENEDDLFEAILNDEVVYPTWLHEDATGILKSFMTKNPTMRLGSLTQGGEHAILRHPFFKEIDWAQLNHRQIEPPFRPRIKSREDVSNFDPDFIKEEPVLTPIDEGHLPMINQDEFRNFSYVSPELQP

## CCC(=O)N1CCN(c2ccc(-n3c(=O)ccc4cnc5ccc(-c6cnc7ccccc7c6)cc5c43)cc2C(F)(F)F)CC1
[1]
  % of control: 22%

## Cc1ccc(-c2ccc3c(ccc4sc5c(c43)NC[C@@H](C)NC5=O)n2)cn1
[2]
  % of inhibition: 5%

## Nc1cnc(N2CCc3cc(S(=O)(=O)Nc4c(F)cc(Cl)cc4F)cc(N4CCCC4=O)c32)nc1 [TP-020n]
[3]
  % of control: 98%

## CC(=O)Nc1cccc(-n2c(=O)n(C3CC3)c(=O)c3c(Nc4ccc(I)cc4F)n(C)c(=O)c(C)c32)c1
[4]
  % of control: 28%

## CC[C@@H]1[C@H](F)C(=O)N[C@@H]1COc1nccc2cc(C(N)=O)c(OC)cc12 [ZIMLOVISERTIB]
[5]
  % of inhibition: 4.3%
[6]
  % of inhibition: 3.33%

## CNC(=O)Nc1ccc(-c2nc(N3CC4CCC(C3)O4)c3cnn(C4CCC5(CC4)OCCO5)c3n2)cc1
[7]
  % of control: 100%

## Cc1cc(C)cc([C@@H]2c3cc(C)ccc3NC(=O)CN2C(=O)c2ccc(Br)s2)c1
[8]
  % of inhibition: -5%

## N#Cc1cccc(-c2c[nH]c3ncnc(N4CCOCC4)c23)c1
[9]
  % of control: 41%

— ChEMBL document CHEMBL5465560, “Selectivity Literature for EUbOPEN Chemogenomic Library” (2024)
